Data from ChEMBL document CHEMBL1154198, “Chemical genetics of Plasmodium falciparum” (Nature, 2010).

What was measured:
Plasmodium falciparum [1] = experiment: ST_JUDE: Plasmodium falciparum 3D7 EC50 (uM) as measured by SYBR green dye; format: functional, organism-based
Plasmodium falciparum [2] = experiment: ST_JUDE: Plasmodium falciparum K1 EC50 (uM) as measured by SYBR green dye; format: functional, organism-based

Row | Structure (SMILES) | EC50 (Plasmodium falciparum [1]) | EC50 (Plasmodium falciparum [2])
1 | CC(=O)NC1=C(Cl)C(=O)c2ccccc2C1=O | 4.04 µM | 2.21 µM
2 | COc1ccc(-c2cc(=O)n(-c3ccc([N+](=O)[O-])cc3)[nH]2)cc1 | > 15 µM | > 15 µM
3 | CCN(CC)CCCNc1nc2cc(OC)c(OC)cc2c2nc(-c3ccccc3)nn12 | > 15 µM | > 15 µM
4 | O=C(Nc1cccc(Cl)c1)c1cc2ccccc2cc1O | > 15 µM | 0.568 µM
5 | Oc1ccc(-c2nc(-c3ccc4oc5ccc(-c6[nH]c(-c7ccc(O)cc7)nc6-c6ccccc6)cc5c4c3)c(-c3ccccc3)[nH]2)cc1 | 8.11 µM | 2.99 µM
6 | COc1ccc(C2C(C(=O)Nc3ccc(C)cc3Br)c3ccccc3C(=O)N2C)cc1 (configuration not stated) | 3.46 µM | 3.77 µM
7 | O=C(c1ccc(Cl)cc1Cl)N1CCCC(C(F)(F)F)C1 (configuration not stated) | 1.46 µM | > 15 µM
8 | CN(C)c1ccc(C2N(C)c3ccccc3N2C)cc1 | 4.27 µM | 4.44 µM
9 | CC(C)(C)C(=O)Cn1ccc(=N)c2ccccc21 | > 15 µM | > 15 µM
10 | CCOC(=O)c1ccc(NC2=C(N3CCCCC3)C(=O)c3ccccc3C2=O)cc1 | 0.0422 µM | 0.111 µM
11 | COc1cc(CN(Cc2cccnc2)C(=O)c2[nH]c3ccc(Cl)cc3c2C)ccc1OC1CCOC1 (configuration not stated) | > 15 µM | > 15 µM
12 | C[n+]1ccccc1/C=C1\Sc2ccccc2N1CCC(=O)O | 7.63 µM | 3.01 µM
13 | CCc1ccc(OC(C)C(=O)Nc2nccs2)cc1 (configuration not stated) | > 15 µM | > 15 µM
14 | Cc1ccc(Nc2cc(C)nc(Nc3ccc(NS(=O)(=O)c4cccc(Cl)c4)cc3)n2)cc1 | 1.46 µM | > 15 µM
15 | CCCCCOCC1CC2(CC(C)(c3csc(Nc4ccccc4Cl)n3)OC2=O)C(=O)O1 (configuration not stated) | > 15 µM | > 15 µM
16 | CCN(CC)CCNC(=O)c1ccc(Cn2c(SCc3cccc(C)c3)nc3ccncc32)cc1 | 6.75 µM | > 15 µM
17 | Cc1cccc(/C=C/c2ccc3cccc(O)c3n2)c1O | 4.68 µM | 1.33 µM
18 | CCOc1ccc(-c2nonc2NC(=O)c2ccccc2C)cc1OCC | > 15 µM | 1.38 µM
19 | Cc1ccc(O)c(Nc2nc(-c3ccccc3)nc3ccccc23)c1 | 3.83 µM | 1.31 µM
20 | CCCc1cc(O)nc(-n2nc(C)cc2NC(=O)c2ccccc2F)n1 | > 15 µM | > 15 µM
21 | COc1ccccc1N1CCN(Cc2cc(Cl)c3cccnc3c2O)CC1 | 3.34 µM | 2.36 µM
22 | CC1=C/C(=N\OC(=O)c2ccc(Br)cc2)C=CC1=O | > 15 µM | > 15 µM

Row | Structure (SMILES) | EC50 (Plasmodium falciparum [1]) | EC50 (Plasmodium falciparum [2])
23 | Cc1ccc2oc(-c3cccc(NC(=O)C(Cl)(Cl)Cl)c3C)nc2c1 | > 15 µM | 1.59 µM
24 | CCc1ccccc1Nc1nc(-c2cccnc2)cs1 | > 15 µM | > 15 µM
25 | COc1cc(NC(=O)COc2cc(C)c(Cl)c(C)c2)cc(OC)c1 | > 15 µM | > 15 µM
26 | CCCCN(CC)CCCNC(=O)Cn1ncc2c3ccccc3n(Cc3ccccc3)c2c1=O | > 15 µM | > 15 µM
27 | COc1ccccc1CNC(=O)C1c2ccccc2C(=O)N(CC(C)C)C1c1cccs1 (configuration not stated) | 3.16 µM | 3.7 µM
28 | CCN(CC)CCn1c(=N)n(CC(O)COc2ccc(Cl)cc2Cl)c2ccccc21 (configuration not stated) | 0.954 µM | 2.88 µM
29 | Oc1cccc2ccc(/C=C/c3ccccc3Br)nc12 | > 15 µM | 9.71 µM
30 | CCOC(=O)C1=C(C)N=c2s/c(=C\c3cc(Cl)ccc3O)c(=O)n2C1c1ccc(Cl)cc1 (configuration not stated) | > 15 µM | > 15 µM
31 | Cc1cccc(OCC(=O)Nc2cccc(-c3nnc(-c4ccccc4)o3)c2)c1 | > 15 µM | > 15 µM
32 | Cc1onc(-c2ccccc2)c1C(=O)Nc1cccc(Br)c1 | > 15 µM | > 15 µM
33 | CCN(CCN(C)C)C(=O)c1csc(-c2ccc(OC(F)(F)F)cc2)n1 | 4.51 µM | > 15 µM
34 | Cc1ccc(S(=O)(=O)Nc2cc(Sc3nc[nH]n3)c(O)c3ccccc23)c(C)c1 | 3.67 µM | 5.53 µM
35 | CC(C)(CO)CN1CCC(C(=O)Nc2ccc(-c3nc4ccccc4[nH]3)cc2)CC1 | 6.81 µM | > 15 µM
36 | CC1CCN(CCCNc2cc(NCCO)c([N+](=O)[O-])c3nonc23)CC1 | > 15 µM | > 15 µM
37 | CCCc1cc(O)nc(-n2nc(C)cc2NC(=O)COc2ccc(OC)cc2)n1 | > 15 µM | > 15 µM
38 | O=C(Nc1cccc(Cl)c1)N1CCn2cccc2C1c1ccc(F)c(F)c1 (configuration not stated) | 10.3 µM | 6.67 µM
39 | CC(C)OCCNC(=O)CC1C(=O)NCCN1Cc1cccc(C(F)(F)F)c1 (configuration not stated) | > 15 µM | > 15 µM
40 | CCOC(=O)C1=C(C)N=c2s/c(=C\c3cc(Cl)ccc3O)c(=O)n2C1c1ccccc1 (configuration not stated) | > 15 µM | > 15 µM
41 | COc1ccc(-c2cnnc(N/N=C/c3ccc(O)cc3)n2)cc1 | > 15 µM | > 15 µM
42 | COc1ccc(N/C=C2/C(=O)N(c3ccc(OC)cc3)C(=O)c3ccccc32)cc1 | > 15 µM | > 15 µM
43 | CCCC(=O)n1nc(-c2ccc(Cl)cc2)nc1NCc1ccc(OC)cc1 | > 15 µM | > 15 µM
44 | CCO/C(O)=C1\C(C)=NC2=C(C(=O)CC(c3ccc(Cl)cc3)C2)C1c1ccc(O)c(OCC)c1 (configuration not stated) | 0.881 µM | 1.47 µM

Row | Structure (SMILES) | EC50 (Plasmodium falciparum [1]) | EC50 (Plasmodium falciparum [2])
45 | CCCCCCCCn1cnc2ccccc21 | > 15 µM | > 15 µM
46 | CSc1ccc(C2CC(=O)NC3=C2C(=O)CC(c2ccccc2Cl)C3)cc1 (configuration not stated) | 2.21 µM | 1.17 µM
47 | COc1ccc(Nc2cc(C)nc(Nc3ccc(NS(=O)(=O)c4ccc(Cl)cc4)cc3)n2)cc1 | 0.564 µM | > 15 µM
48 | CC(Cc1ccccc1)NCCCCCCCCCNC(C)Cc1ccccc1 (configuration not stated) | 3.76 µM | 1.17 µM
49 | CCN(CC)CCNc1nc(Nc2ccc(F)cc2)c2cnn(-c3ccccc3)c2n1 | 1.34 µM | 3.02 µM
50 | Cc1c(N)cc[n+](CC(=O)c2ccccc2)c1C | > 15 µM | 5.97 µM
51 | COc1ccc(Nc2cc(C)nc(Nc3ccc(NS(=O)(=O)c4cccc(F)c4)cc3)n2)cc1 | 2.05 µM | 7.31 µM
52 | CC(C)C(=O)NC(c1ccc(Cl)cc1Cl)c1ccc2cccnc2c1O (configuration not stated) | 3.65 µM | 4.6 µM
53 | COc1ccc(Cl)c2sc(N(Cc3cccnc3)C(=O)c3ccc(S(C)(=O)=O)cc3)nc12 | > 15 µM | > 15 µM
54 | COc1ccc(CCNC(=S)Nc2cc(Cl)ccc2Cl)cc1OC | 3.43 µM | 2.94 µM
55 | O=C(Nc1nc(-c2ccccn2)cs1)c1ccccc1[N+](=O)[O-] | 4.99 µM | 6.94 µM
56 | CCC[N+]12CCC(CC1)C(C(=O)c1cccs1)C2 (configuration not stated) | > 15 µM | > 15 µM
57 | O=C(COc1cccc(Br)c1)N/N=C/c1ccc(Br)cc1 | > 15 µM | > 15 µM
58 | CCc1ccc(S(=O)(=O)Nc2ccc(Nc3nc(C)cc(N4CCCC4)n3)cc2)cc1 | 1.42 µM | > 15 µM
59 | O=C(Nc1ccc(Cl)cc1)Nc1cc(Cl)cc(Cl)c1 | 3.21 µM | 1.63 µM
60 | C=CCN1C(=O)c2[nH]nc(-c3c(C)cc(C)cc3O)c2C1c1ccc(OC)cc1 (configuration not stated) | 2.07 µM | 1.45 µM
61 | COCCCn1c(=N)c(C(=O)NCc2cccnc2)cc2c(=O)n3cccc(C)c3nc21 | > 15 µM | > 15 µM
62 | O=C1C(Sc2nc[nH]n2)=C/C(=N/S(=O)(=O)c2ccc(F)cc2)c2ccccc21 | > 15 µM | 11.9 µM
63 | Cc1ccc(OCC(=O)Nc2cc(C)nn2-c2nc(C)cc(O)n2)cc1 | > 15 µM | > 15 µM
64 | COc1cccc(C2=C(C(C)=O)Sc3nnc(C)n3N2C(C)=O)c1 | 6.59 µM | 5.95 µM
65 | CCc1nnc(NC(=O)CCCOc2ccc(Cl)cc2)s1 | > 15 µM | > 15 µM
66 | CCOC(=O)N1CCN(C(=O)CN(Cc2ccc(Cl)cc2)S(=O)(=O)c2ccc(C)cc2)CC1 | 2.53 µM | 1.32 µM

Row | Structure (SMILES) | EC50 (Plasmodium falciparum [1]) | EC50 (Plasmodium falciparum [2])
67 | CSc1nnc(-c2cccc([N+](=O)[O-])c2)n1Cc1ccccc1 | 1.39 µM | 1.3 µM
68 | CCc1cc2c(=O)c(Oc3ccccc3)c(C(F)(F)F)oc2cc1O | > 15 µM | > 15 µM
69 | CN1C(=O)C(=Cc2ccc(-c3ccc([N+](=O)[O-])cc3O)o2)C(=O)N(C)C1=O | > 15 µM | > 15 µM
70 | O=C(N/N=C/c1cc(Cl)cc(Cl)c1O)NC12CC3CC(CC(C3)C1)C2 | > 15 µM | > 15 µM
71 | O=C(CN1C2=NCCN2c2ccccc21)c1ccc(Cl)cc1Cl | 3.28 µM | 3.65 µM
72 | COc1ccc(CCN2COc3c(cc4c(C)c(C)c(=O)oc4c3C)C2)cc1 | 6.95 µM | 0.802 µM
73 | Cc1ccc(O)c(-n2cc3c(c2-c2cccc([N+](=O)[O-])c2)c(=O)n(C)c(=O)n3C)c1 | 4.89 µM | 4.79 µM
74 | CCCN1CCC(N2CCCC(C(=O)c3ccc4cc(OC)ccc4c3)C2)CC1 (configuration not stated) | 5 µM | > 15 µM
75 | CCCC(=O)NC(c1ccc(Cl)cc1)c1ccc2cccnc2c1O (configuration not stated) | 1.88 µM | 2.3 µM
76 | COc1ccc(NC2=C/C(=N/S(=O)(=O)c3ccc(C(C)C)cc3)c3ccccc3C2=O)cc1 | 0.499 µM | 0.458 µM
77 | CC(C)c1ccc(Nc2c(-c3ccccn3)nc3ccccn23)cc1 | > 15 µM | > 15 µM
78 | Cc1cc(N2CCN(C)CC2)nc2ccc(NC(=O)/C=C/c3ccccc3OC(C)C)cc12 | 3.36 µM | 5.57 µM
79 | CCC(C)c1ccc(NC(=O)c2ccc(Br)o2)c(O)c1 (configuration not stated) | 1.93 µM | 2.57 µM
80 | CCOC(=O)c1cnc2ccc(OCC)cc2c1NCCc1ccccc1 | > 15 µM | > 15 µM
81 | CCOC(=O)c1ccc(NC(=O)N2CCN(Cc3ccccc3)CC2)cc1 | > 15 µM | > 15 µM
82 | O=C(NCC1Cc2cccc(-c3ccncc3)c2O1)c1csc2c1CCCC2 (configuration not stated) | 8.74 µM | > 15 µM
83 | COCCN1C(=O)c2ccccc2C(C(=O)Nc2ccc(F)c(Cl)c2)C1c1cccs1 (configuration not stated) | 2.59 µM | 2.6 µM
84 | COc1ccccc1C(=O)N(Cc1cccnc1)c1nc2c(Cl)cccc2s1 | > 15 µM | 6.66 µM
85 | Cc1ccc2c(c1)C=C/C(=C\c1cccc[n+]1C)N2C | 0.19 µM | 0.138 µM
86 | COc1ccc(C(NC(=O)c2cccnc2)c2cc(Cl)c3cccnc3c2O)cc1OC (configuration not stated) | > 15 µM | 2.66 µM
